{
  "source": "patent US8252532B2",
  "about": "(University of Connecticut, priority 2006, dated 2012)",
  "key": {"Ovcar-3 cells": {"system": "Ovcar-3 cells", "assay": "Apoptotic nuclei in Ovcar-3 cells (DAPI staining)", "assay_type": "cell-based, human", "conditions": "for effect on CDDP-induced apoptosis: simultaneous treatment with CDDP", "experimental": "In order to assess the effects of CDDP, P4 and PGRMC1's role in regulating the viability of ovarian cancer cells, Ovcar-3 cells were used. Ovcar-3 cells were maintained in culture as described by Kim et al (23). Briefly, Ovcar-3 cells were cultured in RPMI-1640 medium (Invitrogen, Grand Island, N.Y.) supplemented with 10% fetal bovine serum (HyClone, Logan, Utah), 100 U/ml penicillin G, 100 ug/ml streptomycin (Invitrogen, Grand Island, N.Y.), at 37° C. in a humidified atmosphere of 5% CO2 incubator. The Ovcar-3 cells were cultured for 72 hours before each experiment.\nPGRMC1 siRNA treatment was used to deplete PGRMC1 levels (28). In this protocol, PGRMC1 depletion was performed by transfecting PGRMC1 siRNA using siPORT NeoFX transfection protocol outlined by Ambion. Studies were conducted in which either scramble (control) siRNA (Cat#: AM4611) or one of three pre-designed human PGRMC1 siRNAs (Ambion siRNA ID#: 18430, 18340, 18248) were transfected at a concentration of 30 nM. Levels of PGRMC1 mRNA and protein were assessed by real-time PCR and western blot, respectively as previously described. In addition and immunocytochemical analysis confirmed that PGRMC1 siRNA (ID#: 18248) was an effective PGRMC1 siRNA. This siRNA targeted Exon 1 of PGRMC1 (forward, 5′-[…]tt and reverse, 5′-[…]tt). Based on this, Ovcar-3 cells were cultured for 3 days and then treated for 3 days with either scramble or PGRMC1 siRNA (ID#: 18248). The cells were then treated for 24 h with CDDP (15 μM) and P4 (1 μM) and observed apoptosis as described below.\nFinally, a blocking antibody study was conducted as previously described (25). Ovcar-3 were plated and cultured for 3 days as previously described. The cells were then washed and cultured for 24 h with serum-supplemented containing CDDP (15 μM) and P4 (1 μM) and either rabbit IgG (20 μg/ml) or the antibody to PGRMC1 (20 μg/ml). After culture the cells were rinsed in Krebs/Hepes buffer and stained to detect apoptotic nuclei as described below.\nRegardless of the experimental design, in situ DNA staining was used to identify apoptotic nuclei by adding DAPI directly to the culture medium at a final concentration of 2 μg/ml. The cultures were incubated for 10 min at 37° C. in the dark. After staining, the cells were observed under epi-fluorescent optics. Under these conditions only cells with condensed or fragmented nuclei were stained intensely with DAPI. The DAPI-stained cells also stained with YOPRO-1, a well-known nuclear stain that identifies apoptotic cells (19, 25, 28). These cells were considered to be apoptotic (25). At least 100 cells/culture well were counted and the percentage of apoptotic nuclei in each well determined. For the data shown in FIGS. 12 and 15, cells were selected randomly. In FIG. 6 the apoptotic status (i.e. DAPI staining; blue fluorescence) was determined for 100 transfected cells per well as indicated by their GFP (i.e. green) fluorescence."}, "[1]": {"system": "human granulosa/luteal cells", "assay": "Apoptotic nuclei in human granulosa/luteal cells after serum withdrawal (TUNEL, in situ DNA staining)", "assay_type": "cell-based", "experimental": "After the oocytes were removed, follicular aspirates were pooled and centrifuged at 250×g for 10 minutes. The cell pellet was resuspended in serum-free culture medium, layered on HISTOPAQUE-1077 and centrifuged for 30 minutes at 400×g. After centrifugation, the opaque interface containing the granulosa/luteal cells was carefully aspirated and transferred into a 15 ml sterile conical centrifuge tube. The cells were then washed by resuspending the cells in 12 ml of PBS and centrifuging them at 250×g for 10 minutes. This was repeated two additional times. The cell pellet was then resuspended in 1 ml of 0.25% trypsin-EDTA solution and incubated for 5 minutes to dissociate the cells. After trypsinization, 5 ml of serum-supplemented medium was added and the cells were centrifuged at 250×g for 10 minutes. The cells were then resuspended in serum-supplemented medium, counted in a hemacytometer and resuspended to yield a final concentration 1 million cells/ml.\nPlastic lab-tek slides (BD Bioscience, Bedford, Mass.), which had been previously coated with Growth Factor Reduced Matrigel Matrix (BD Bioscience, Bedford, Mass.), were plated at about 60,000 cells per well in 0.5 ml of serum-supplemented medium with 2 U/ml (IU) of hCG. The medium was changed after 24 hours to remove any remaining blood cells or non-attached granulosa/luteal cells and the cultures continued for two additional days. The cultures were then subjected to the various experimental treatments as outlined below.\nBoth TUNEL and in situ DNA staining were used to identify apoptotic nuclei. For the TUNEL assay human granulosa/luteal cells were cultured for 5 hours in serum-free medium and then fixed in 10% formalin. The cells were stained using the Apoptag Peroxidase In Situ kit staining according to manufacture's instructions (Chemicon, Temecula, Calif.). In situ DNA staining was done by adding hydroethidine directly to the culture medium at a final concentration of 3.5 μg/ml. The cultures were incubated for 15 minutes at room temperature in the dark. After staining, the cells observed under epi-fluorescent optics. Under these conditions only cells with condensed or fragmented nuclei were stained intensely with hydroethidine. These cells were considered to be apoptotic in accordance with prior publications in the field. At least 100 cells/culture well were counted and the percentage of apoptotic nuclei in each well determined.\nHuman granulosa/luteal cells were plated on lab tek slides and cultured for three days as previously described. […] After culture the cells were raised in Krebs/Hepes buffer and stained to detect apoptotic nuclei as taught by Engmann et al., J. of Clinical Endocrinology and Metabolism 91(12): 4962-4968 (2006). One hundred cells in each chamber were counted and the percentage of apoptotic nuclei determined as previously described."}, "PGRMC1": {"system": "PGRMC1", "assay": "PGRMC1 mRNA and protein levels in Ovcar-3 cells after siRNA (real-time PCR, western blot, immunocytochemistry)", "assay_type": "cell-based, human", "conditions": "72 h treatment; vs scramble control", "experimental": "Real Time PCR. Quantitative measurements of PGR and PGRMC1 mRNA were made on cDNA samples provided by OriGene. […] Primers were evaluated with NCBI blast to confirm product specificity and products were designed to cross intron/exon borders. Primers used were: PGR forward [NT] ID NO: 13) and reverse [NT] ID NO: 14) and PGRMC-1 forward [NT] ID NO: 15) and reverse [NT] ID NO: 16). Quantitative real time PCR was performed on the MyiQ Single-Color Real-Time PCR Detection System (Bio-Rad, Hercules, Calif.). Samples were resuspended in twenty-five μl of the iQ SyberGreen Supermix (Bio-Rad) containing appropriate primers. Relative gene expression was evaluated with Bio-Rad iQ5 software using the ΔCT method (24). Each gene was evaluated on two separate identical array plates, which were loaded with equal amounts of cDNA per well as described by the manufacturer. End products were also run on agarose gels to confirm product size. Immunohistochemistry and immunocytochemistry were also used to assess the localization of PGRMC1 in formalin-fixed paraffin-embedded tissue sections of ovarian cancers and Ovcar-3 cells, respectively. […] Levels of PGRMC1 mRNA and protein were assessed by real-time PCR and western blot, respectively as previously described. […]"}},
  "data": [
    {"molecule": "N.N.[Cl][Pt][Cl]", "note": "[CDDP, cis-diamminedichloroplatinum(II)]", "values": [
      {"measurement": "percentage of cells that undergo apoptosis (dose dependence)", "setting": "Ovcar-3 cells; 10% fetal bovine serum, FIG. 12B", "value": "dose-dependent increase"},
      {"measurement": "percentage of cells in which apoptosis is induced", "setting": "Ovcar-3 cells; in the presence of serum, within 24 h", "value": "40 to 60", "unit": "%"}
    ]},
    {"molecule": "CC#C[C@]1(O)CC[C@H]2[C@@H]3CCC4=CC(=O)CCC4=C3[C@@H](c3ccc(N(C)C)cc3)C[C@@]21C", "note": "[RU486]", "values": [
      {"measurement": "percentage of apoptotic nuclei", "setting": "[1]; 25 and 50 μM doses of RU486", "value": "greater than 70%"}
    ]},
    {"molecule": "CC(=O)[C@H]1CC[C@H]2[C@@H]3CCC4=CC(=O)CC[C@]4(C)[C@H]3CC[C@]12C", "note": "[progesterone, 4-Pregnene-3,20-dione]", "values": [
      {"measurement": "effect on apoptosis due to serum-withdrawal in presence of IgG or IgY", "setting": "[1]; 1 μM progesterone, IgG or IgY control", "value": "suppressed apoptosis"},
      {"measurement": "effect on apoptosis due to serum withdrawal", "setting": "[1]; all doses tested", "value": "suppressed apoptosis"},
      {"measurement": "suppression of serum-withdrawal induced apoptosis in presence of RU486", "setting": "[1]; progesterone 1 μM, RU486 5 μM", "value": "still capable of suppressing serum-withdrawal induced apoptosis"},
      {"measurement": "ability to override the effect of RU486", "setting": "[1]; progesterone 1 μM, RU486 25 and 50 μM", "value": "could not override the effect of RU486"},
      {"measurement": "lowest effective dose suppressing apoptosis", "setting": "[1]; serum-free medium", "value": 10, "unit": "nM"},
      {"measurement": "reduction of the killing effect of CDDP", "setting": "Ovcar-3 cells; addition of P4 to CDDP in serum", "value": "about 40%"},
      {"measurement": "concentration of maximum effect on inhibition of apoptosis induced by serum withdrawal", "setting": "Ovcar-3 cells; serum withdrawal", "value": "~1", "unit": "µM"},
      {"measurement": "effect on rate of apoptosis in serum-free media", "setting": "Ovcar-3 cells; serum-free media for 5 h, p<0.05", "value": "attenuated"},
      {"measurement": "effect on CDDP-induced apoptosis", "setting": "Ovcar-3 cells; 5 h of culture, p<0.05", "value": "attenuated"},
      {"measurement": "effect on CDDP-induced apoptosis", "setting": "Ovcar-3 cells; 24 h of culture, p<0.05", "value": "attenuated"}
    ]},
    {"molecule": "PGRMC1 siRNA (ID#: 18248): Ambion human PGRMC1 siRNA targeting Exon 1, nucleotides 365-386; SEQ ID NO: 7 and 8 (chain 1 GGUGUUCGAUGUGACCAAATT; chain 2 UUUGGUCACAUCGAACACCTT; chemistry not given here)", "values": [
      {"measurement": "PGRMC1 levels by immunocytochemical analysis", "setting": "PGRMC1", "value": "suppress PGRMC1 levels"},
      {"measurement": "enhancement of the killing effect of CDDP in the presence of P4", "setting": "Ovcar-3 cells; PGRMC1 depleted with siRNA, CDDP and P4", "value": "≥ 50", "unit": "%"},
      {"measurement": "effect on P4's ability to inhibit CDDP-induced apoptosis", "setting": "Ovcar-3 cells; siRNA 3 days, then 24 h CDDP (15 μM) and P4 (1 μM), p<0.05", "value": "attenuated"}
    ]}
  ]
}
